Experimental data reported in ChEMBL document CHEMBL5370521, “New miconazole-based azoles derived from eugenol show activity against Candida spp. and Cryptococcus gattii by inhibiting the fungal ergosterol biosynthesis” (Eur J Med Chem, 2023).
Converted amounts (≈) assume the structure as drawn. The source made the active and inactive calls. No cut-off for these calls is given here.

How the values were obtained:
[1] = system: Nakaseomyces glabratus; experiment: Antifungal activity against Candida glabrata ATCC 2001 assessed as inhibition of fungal growth incubated for 24 to 48 hrs by CLSI protocol based broth microdilution method; assay type: functional; settings: time 24-48 hrs
[2] = Antifungal activity against Cryptococcus gattii ATCC 24065 assessed as inhibition of fungal growth incubated for 24 to 48 hrs by CLSI protocol based broth microdilution method; assay type: functional, Cryptococcus gattii VGI; settings: time 24-48 hrs
[3] = Cytotoxicity against H9c2 cells assessed as inhibition of cell proliferation incubated for 72 hrs by resazurin dye based microplate reader analysis; assay type: toxicity; settings: rat
[4] = system: Candida albicans; experiment: Antifungal activity against Candida albicans SC5314 assessed as inhibition of fungal growth at highest concentration incubated for 24 to 48 hrs by CLSI protocol based broth microdilution method; assay type: functional, organism-based; settings: time 24-48 hrs
[5] = system: Candida tropicalis; experiment: Antifungal activity against Candida tropicalis ATCC 750 assessed as inhibition of fungal growth at highest concentration incubated for 24 to 48 hrs by CLSI protocol based broth microdilution method; assay type: functional, organism-based; settings: time 24-48 hrs
[6] = system: [Candida] auris; experiment: Antifungal activity against Candida auris COLO 01 A assessed as inhibition of fungal growth at highest concentration incubated for 24 to 48 hrs by CLSI protocol based broth microdilution method; assay type: functional, organism-based; settings: Candidozyma auris, time 24-48 hrs
[7] = system: Candida parapsilosis; experiment: Antifungal activity against Candida parapsilosis ATCC 22019 assessed as inhibition of fungal growth at highest concentration incubated for 24 to 48 hrs by CLSI protocol based broth microdilution method; assay type: functional, organism-based; settings: time 24-48 hrs
[8] = system: Pichia kudriavzevii; experiment: Antifungal activity against Candida krusei ATCC 20298 assessed as inhibition of fungal growth at highest concentration incubated for 24 to 48 hrs by CLSI protocol based broth microdilution method; assay type: functional, organism-based; settings: time 24-48 hrs
[9] = Selectivity index, ratio of CC50 for cytotoxicity against […] H9c2 cells to MIC for antifungal activity against Candida glabrata ATCC 2001; assay type: toxicity, cell-based; settings: rat, read-out: Selectivity Index
[10] = Selectivity index, ratio of CC50 for cytotoxicity against […] H9c2 cells to MIC for antifungal activity against Cryptococcus gattii ATCC 24065; assay type: toxicity, cell-based; settings: rat, read-out: Selectivity Index
[11] = system: Nakaseomyces glabratus; experiment: Antifungal activity against Candida glabrata ATCC 2001 assessed as inhibition of fungal growth at highest concentration incubated for 24 to 48 hrs by CLSI protocol based broth microdilution method; assay type: functional, organism-based; settings: time 24-48 hrs
[12] = system: Cryptococcus gattii VGI; experiment: Antifungal activity against Cryptococcus gattii ATCC 24065 assessed as inhibition of fungal growth at highest concentration incubated for 24 to 48 hrs by CLSI protocol based broth microdilution method; assay type: functional; settings: time 24-48 hrs
[13] = system: Candida albicans; experiment: Antifungal activity against Candida albicans SC5314 assessed as inhibition of fungal growth incubated for 24 to 48 hrs by CLSI protocol based broth microdilution method; assay type: functional; settings: time 24-48 hrs
[14] = system: Candida tropicalis; experiment: Antifungal activity against Candida tropicalis ATCC 750 assessed as inhibition of fungal growth incubated for 24 to 48 hrs by CLSI protocol based broth microdilution method; assay type: functional; settings: time 24-48 hrs
[15] = system: [Candida] auris; experiment: Antifungal activity against Candida auris COLO 01 A assessed as inhibition of fungal growth incubated for 24 to 48 hrs by CLSI protocol based broth microdilution method; assay type: functional; settings: Candidozyma auris, time 24-48 hrs
[16] = system: Candida parapsilosis; experiment: Antifungal activity against Candida parapsilosis ATCC 22019 assessed as inhibition of fungal growth incubated for 24 to 48 hrs by CLSI protocol based broth microdilution method; assay type: functional; settings: Lodderomyces parapsilosis, time 24-48 hrs
[17] = system: Pichia kudriavzevii; experiment: Antifungal activity against Candida krusei ATCC 20298 assessed as inhibition of fungal growth incubated for 24 to 48 hrs by CLSI protocol based broth microdilution method; assay type: functional; settings: time 24-48 hrs
[18] = Selectivity index, ratio of CC50 for cytotoxicity against […] H9c2 cells to MIC for antifungal activity against Candida albicans SC5314; assay type: toxicity, cell-based; settings: read-out: Selectivity Index
[19] = Selectivity index, ratio of CC50 for cytotoxicity against […] H9c2 cells to MIC for antifungal activity against Candida tropicalis ATCC 750; assay type: toxicity, cell-based; settings: read-out: Selectivity Index
[20] = Selectivity index, ratio of CC50 for cytotoxicity against […] H9c2 cells to MIC for antifungal activity against Candida auris COLO 01 A; assay type: toxicity, cell-based; settings: read-out: Selectivity Index
[21] = Selectivity index, ratio of CC50 for cytotoxicity against […] H9c2 cells to MIC for antifungal activity against Candida parapsilosis ATCC 22019; assay type: toxicity, cell-based; settings: read-out: Selectivity Index
[22] = Selectivity index, ratio of CC50 for cytotoxicity against […] H9c2 cells to MIC for antifungal activity against Candida krusei ATCC 20298; assay type: toxicity, cell-based; settings: read-out: Selectivity Index
[23] = system: Candida albicans; experiment: Potency index, ratio of miconazole MIC to test compound MIC for antifungal activity against Candida albicans SC5314 assessed as inhibition of fungal growth incubated for 24 to 48 hrs by CLSI protocol based broth microdilution method; assay type: functional; settings: time 24-48 hrs
[24] = system: [Candida] auris; experiment: Potency index, ratio of fluconazole MIC to test compound MIC for antifungal activity against Candida auris COLO 01 A assessed as inhibition of fungal growth incubated for 24 to 48 hrs by CLSI protocol based broth microdilution method; assay type: functional, Candidozyma auris; settings: time 24-48 hrs
[25] = biological target: T1, Lanosterol 14-alpha demethylase (Candida albicans (strain SC5314 / ATCC MYA-2876) (Yeast), UniProt P10613); experiment: Inhibition of CYP51 in Candida albicans SC5314 assessed as reduction in ergosterol level at 3 fold MIC incubated overnight by spectrophotometric analysis
[26] = biological target: T1, Lanosterol 14-alpha demethylase; experiment: Inhibition of CYP51 in Candida albicans SC5314 assessed as reduction in ergosterol level at 2 fold MIC incubated overnight by spectrophotometric analysis
[27] = system: [Candida] auris; experiment: Potency index, ratio of miconazole MIC to test compound MIC for antifungal activity against Candida auris COLO 01 A assessed as inhibition of fungal growth incubated for 24 to 48 hrs by CLSI protocol based broth microdilution method; assay type: functional, Candidozyma auris; settings: time 24-48 hrs

T1 sequence (P10613 whole entry): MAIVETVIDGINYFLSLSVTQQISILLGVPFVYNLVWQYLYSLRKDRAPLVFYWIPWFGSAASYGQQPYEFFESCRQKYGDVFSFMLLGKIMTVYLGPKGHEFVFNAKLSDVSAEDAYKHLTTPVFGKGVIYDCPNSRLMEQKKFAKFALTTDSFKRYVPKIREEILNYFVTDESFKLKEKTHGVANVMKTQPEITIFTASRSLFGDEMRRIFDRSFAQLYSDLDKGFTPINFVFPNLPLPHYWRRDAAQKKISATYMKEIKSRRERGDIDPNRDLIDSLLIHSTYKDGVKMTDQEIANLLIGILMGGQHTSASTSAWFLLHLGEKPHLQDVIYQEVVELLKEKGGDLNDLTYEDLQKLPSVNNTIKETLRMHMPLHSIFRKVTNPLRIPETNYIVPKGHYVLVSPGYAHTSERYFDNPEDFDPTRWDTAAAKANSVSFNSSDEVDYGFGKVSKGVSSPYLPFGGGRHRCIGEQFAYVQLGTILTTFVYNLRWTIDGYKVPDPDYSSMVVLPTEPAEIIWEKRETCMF

Row | SMILES | MIC [1] [µM] | MIC [2] [µM] | CC50 at 72 h [3] [µM] | Activity [4] | Activity [5] | Activity [6] | Activity [7] | Activity [8] | Activity [11] | Activity [12] | also measured
1 | C=CCc1ccc(OCC(Cn2ccnc2)OCc2ccc(Cl)cc2)c(OC)c1 (configuration not stated) | 36.8 (≈ 15.2 µg/mL) | 18.9 (≈ 7.8 µg/mL) | 33.6 | inactive | inactive | inactive | inactive | inactive |  |  | selectivity ratio [9]: 0.9; selectivity ratio [10]: 1.8
2 | C=CCc1ccc(OCC(O)Cn2ccnc2)c(OC)c1 (configuration not stated) |  |  | 644 | inactive | inactive | inactive | inactive | inactive | inactive | inactive | 
3 | CCCc1ccc(OCC(Cn2cncn2)OC(=O)c2ccc(Cl)cc2)c(OC)c1 (configuration not stated) |  |  | 35.4 | inactive | inactive | inactive | inactive | inactive | inactive | inactive | 
4 | C=CCc1ccc(OCC(Cn2cncn2)OCc2ccc(Cl)cc2)c(OC)c1 (configuration not stated) |  |  | 52.9 | inactive | inactive | inactive | inactive | inactive | inactive | inactive | 
5 | CCCc1ccc(OCC(O)Cn2cncn2)c(OC)c1 (configuration not stated) |  |  | 553 | inactive | inactive | inactive | inactive | inactive | inactive | inactive | 
6 | CCCc1ccc(OCC(O)Cn2ccnc2)c(OC)c1 (configuration not stated) |  |  | 453 | inactive | inactive | inactive | inactive | inactive | inactive | inactive | 
7 | CCCc1ccc(OCC(Cn2ccnc2)OCc2ccc(Cl)cc2)c(OC)c1 (configuration not stated) | 37.6 (≈ 15.6 µg/mL) | 18.8 (≈ 7.8 µg/mL) | 44.2 |  |  |  |  |  |  |  | MIC [13]: 18.8 µM (≈ 7.8 µg/mL); MIC [14]: 75.3 µM (≈ 31.2 µg/mL); MIC [15]: 75.3 µM (≈ 31.2 µg/mL); MIC [16]: 75.3 µM (≈ 31.2 µg/mL); MIC [17]: 37.6 µM (≈ 15.6 µg/mL); selectivity ratio [18]: 2.3; selectivity ratio [19]: 0.6; selectivity ratio [20]: 0.6; selectivity ratio [21]: 0.6; selectivity ratio [22]: 1.2; selectivity ratio [9]: 1.2; selectivity ratio [10]: 2.4; Ratio [23]: 8; Ratio [24]: >2; inhibition (INH) [25]: Active; inhibition (INH) [26]: Active
8 | C=CCc1ccc(OCC(Cn2ccnc2)OC(=O)c2ccc(Cl)cc2)c(OC)c1 (configuration not stated) | 36.5 (≈ 15.6 µg/mL) | 73.2 (≈ 31.2 µg/mL) | 129 |  |  | inactive |  | inactive |  |  | MIC [13]: 4.6 µM (≈ 1.96 µg/mL); MIC [14]: 73.2 µM (≈ 31.2 µg/mL); MIC [16]: 73.2 µM (≈ 31.2 µg/mL); selectivity ratio [18]: 28.2; selectivity ratio [19]: 1.8; selectivity ratio [21]: 1.8; selectivity ratio [9]: 3.5; selectivity ratio [10]: 1.8; Ratio [23]: 32; inhibition (INH) [25]: Active
9 | CCCc1ccc(OCC(Cn2cncn2)OCc2ccc(Cl)cc2)c(OC)c1 (configuration not stated) |  |  | 40.1 | inactive | inactive | inactive | inactive | inactive | inactive | inactive | 
10 | Clc1ccc(COC(Cn2ccnc2)c2ccc(Cl)cc2Cl)c(Cl)c1 (configuration not stated) [MICONAZOLE] | 1.2 (≈ 0.499 µg/mL) | 9.4 (≈ 3.91 µg/mL) |  |  |  |  |  |  |  |  | MIC [13]: 150 µM (≈ 62.5 µg/mL); MIC [14]: 31.2 µM (≈ 13 µg/mL); MIC [15]: 74.9 µM (≈ 31.2 µg/mL); MIC [16]: 7.8 µM (≈ 3.25 µg/mL); MIC [17]: 18.7 µM (≈ 7.78 µg/mL)
11 | CCCc1ccc(OCC(Cn2ccnc2)OC(=O)c2ccc(Cl)cc2)c(OC)c1 (configuration not stated) | 36.4 (≈ 15.6 µg/mL) | 72.7 (≈ 31.2 µg/mL) | 35.5 | inactive | inactive |  | inactive | inactive |  |  | MIC [15]: 36.4 µM (≈ 15.6 µg/mL); selectivity ratio [20]: 0.9; selectivity ratio [9]: 0.9; selectivity ratio [10]: 0.5; Ratio [27]: 2; Ratio [24]: >5
12 | OC(Cn1cncn1)(Cn1cncn1)c1ccc(F)cc1F [FLUCONAZOLE] | 13.1 (≈ 4.01 µg/mL) | 13.1 (≈ 4.01 µg/mL) |  |  |  |  |  |  |  |  | MIC [13]: 1.6 µM (≈ 0.49 µg/mL); MIC [14]: 0.8 µM (≈ 0.245 µg/mL); MIC [15]: 209 µM (≈ 64 µg/mL); MIC [16]: 3.3 µM (≈ 1.01 µg/mL); MIC [17]: 104 µM (≈ 32 µg/mL); inhibition (INH) [25]: Active; inhibition (INH) [26]: Active
13 | C=CCc1ccc(OCC(Cn2cncn2)OC(=O)c2ccc(Cl)cc2)c(OC)c1 (configuration not stated) |  |  | 96.2 | inactive | inactive | inactive | inactive | inactive | inactive | inactive | 
14 | C=CCc1ccc(OCC(O)Cn2cncn2)c(OC)c1 (configuration not stated) |  |  | 541 | inactive | inactive | inactive | inactive | inactive | inactive | inactive | 
